According to US8471005B2 (Cephalon, Inc., priority 2008, dated 2013):
pIC50: −log10 of the molar value. Read-outs that look alike come from different tables or passages of the source.

Assays:
ALK = molecular target: T1, ALK (Homo sapiens, UniProt Q9UM73); test: ALK Kinase Assay (ELISA/TRF, PLC-γ substrate); type: biochemical; conditions: read-out: ALK Potency
T1 construct: host or cells: baculovirus expression system
How it was run: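 First, plates are coated with substrate (phospholipase C-γ, 10 μg/mL, TBS). Next, 30 ng/ml ALK initiates phosphorylation for 15 min at 37° C. Then Eu-N1 PT66 antibody is added for detection, and a nonlinear dose-response fit of percent inhibition yields IC50.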

JAK2 = molecular target: T2, JAK2 (Homo sapiens, UniProt O60674); test: Recombinant Human JAK2 Kinase Assay (TRF); type: biochemical; conditions: read-out: JAK2 Potency
T2 construct: host or cells: baculovirus expression system
T2 sequence (O60674 whole entry): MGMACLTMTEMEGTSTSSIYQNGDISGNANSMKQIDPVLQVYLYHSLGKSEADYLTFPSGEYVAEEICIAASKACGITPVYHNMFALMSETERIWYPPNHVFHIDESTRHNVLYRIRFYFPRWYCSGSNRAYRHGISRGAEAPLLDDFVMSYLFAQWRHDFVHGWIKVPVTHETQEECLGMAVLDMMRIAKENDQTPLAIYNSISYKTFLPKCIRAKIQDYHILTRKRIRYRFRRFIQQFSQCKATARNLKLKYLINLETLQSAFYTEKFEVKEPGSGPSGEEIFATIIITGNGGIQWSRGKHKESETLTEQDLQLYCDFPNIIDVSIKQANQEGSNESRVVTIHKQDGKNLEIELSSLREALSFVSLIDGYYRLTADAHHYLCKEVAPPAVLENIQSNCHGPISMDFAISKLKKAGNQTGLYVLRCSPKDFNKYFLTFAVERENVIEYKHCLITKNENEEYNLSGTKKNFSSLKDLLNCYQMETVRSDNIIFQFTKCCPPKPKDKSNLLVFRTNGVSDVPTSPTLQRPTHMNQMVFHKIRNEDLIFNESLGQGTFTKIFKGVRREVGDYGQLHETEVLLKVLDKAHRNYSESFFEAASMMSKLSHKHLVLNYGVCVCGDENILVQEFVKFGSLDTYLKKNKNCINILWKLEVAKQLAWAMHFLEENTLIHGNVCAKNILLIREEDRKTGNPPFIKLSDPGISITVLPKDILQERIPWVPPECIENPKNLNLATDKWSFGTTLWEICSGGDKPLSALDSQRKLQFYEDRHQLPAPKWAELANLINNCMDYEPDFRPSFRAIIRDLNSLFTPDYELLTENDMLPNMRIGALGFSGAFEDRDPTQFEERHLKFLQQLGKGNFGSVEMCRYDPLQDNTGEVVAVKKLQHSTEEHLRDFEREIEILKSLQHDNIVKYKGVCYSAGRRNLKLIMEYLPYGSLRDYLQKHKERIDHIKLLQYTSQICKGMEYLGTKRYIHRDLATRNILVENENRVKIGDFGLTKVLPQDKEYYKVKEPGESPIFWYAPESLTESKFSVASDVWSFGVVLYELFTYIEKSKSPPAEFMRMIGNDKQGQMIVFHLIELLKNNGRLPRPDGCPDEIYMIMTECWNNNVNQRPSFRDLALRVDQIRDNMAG
How it was run: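 Baculovirus-expressed JAK2 (15 ng/ml) phosphorylated a biotinylated 15-mer peptide captured on Neutravidin-coated plates, in 20 mM HEPES pH 7.2 with 0.2 μM ATP, 1 mM MnCl2, 0.1% BSA and 2.5% DMSO. Reaction ran 20 min at room temperature; phosphopeptide was detected by time-resolved fluorescence with Eu-N1-labelled PY100 antibody.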

[1] = ALK kinase inhibition, 1 μM ATP
[2] = JAK2 kinase inhibition, 0.2 μM ATP

T1 sequence (Q9UM73 19-1620): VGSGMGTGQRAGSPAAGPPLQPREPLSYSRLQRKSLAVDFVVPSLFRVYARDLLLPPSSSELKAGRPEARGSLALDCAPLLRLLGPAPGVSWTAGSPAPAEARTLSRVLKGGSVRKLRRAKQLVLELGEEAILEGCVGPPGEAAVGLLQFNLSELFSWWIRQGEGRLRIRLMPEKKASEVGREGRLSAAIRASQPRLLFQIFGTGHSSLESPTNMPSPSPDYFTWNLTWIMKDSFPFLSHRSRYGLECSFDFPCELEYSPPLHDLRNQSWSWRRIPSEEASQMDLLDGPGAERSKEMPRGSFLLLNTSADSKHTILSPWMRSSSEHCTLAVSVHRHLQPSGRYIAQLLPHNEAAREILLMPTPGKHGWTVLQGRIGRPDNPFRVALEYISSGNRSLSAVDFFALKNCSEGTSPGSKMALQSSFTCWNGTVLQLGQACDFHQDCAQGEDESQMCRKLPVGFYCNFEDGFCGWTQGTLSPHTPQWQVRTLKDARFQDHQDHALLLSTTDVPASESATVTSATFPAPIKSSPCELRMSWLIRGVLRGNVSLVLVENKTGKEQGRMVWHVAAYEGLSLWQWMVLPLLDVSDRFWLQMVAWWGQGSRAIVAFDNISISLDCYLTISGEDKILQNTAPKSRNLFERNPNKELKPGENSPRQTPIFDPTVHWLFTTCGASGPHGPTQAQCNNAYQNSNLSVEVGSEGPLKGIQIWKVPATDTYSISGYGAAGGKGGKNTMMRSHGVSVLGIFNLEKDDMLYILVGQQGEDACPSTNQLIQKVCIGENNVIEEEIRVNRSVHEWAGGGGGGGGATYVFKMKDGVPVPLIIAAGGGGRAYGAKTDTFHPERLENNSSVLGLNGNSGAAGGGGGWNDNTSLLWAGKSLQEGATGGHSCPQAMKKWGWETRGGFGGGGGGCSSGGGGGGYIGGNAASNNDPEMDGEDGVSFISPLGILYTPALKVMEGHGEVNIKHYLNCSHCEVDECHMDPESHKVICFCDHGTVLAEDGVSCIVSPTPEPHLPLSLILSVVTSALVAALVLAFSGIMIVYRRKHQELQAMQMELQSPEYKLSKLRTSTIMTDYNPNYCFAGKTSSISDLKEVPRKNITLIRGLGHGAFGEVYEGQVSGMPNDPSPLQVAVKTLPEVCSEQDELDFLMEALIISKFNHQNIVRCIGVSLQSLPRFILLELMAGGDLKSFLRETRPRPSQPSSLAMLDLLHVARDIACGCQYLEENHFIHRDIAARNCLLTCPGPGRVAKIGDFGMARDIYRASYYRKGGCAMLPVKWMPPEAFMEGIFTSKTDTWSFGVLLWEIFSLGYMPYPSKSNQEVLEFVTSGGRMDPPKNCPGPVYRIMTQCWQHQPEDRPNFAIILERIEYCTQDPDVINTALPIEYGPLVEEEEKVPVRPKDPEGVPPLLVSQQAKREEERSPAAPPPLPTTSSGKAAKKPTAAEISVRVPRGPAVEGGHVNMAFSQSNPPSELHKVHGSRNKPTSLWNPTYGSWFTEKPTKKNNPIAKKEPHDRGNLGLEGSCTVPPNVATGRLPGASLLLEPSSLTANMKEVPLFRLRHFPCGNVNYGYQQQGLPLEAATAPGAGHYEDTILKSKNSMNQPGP

| pIC50 (ALK; [1]) | pIC50 (JAK2; [2]) | pIC50 (ALK; ALK Kinase Inhibition) | pIC50 (JAK2; JAK2 Kinase Inhibition) | Structure (SMILES) |
| --- | --- | --- | --- | --- |
| > 7.00 | > 7.00 |  |  | NC(=O)CN1CCC(c2ccc(Nc3ncc4ccc(-c5cccc(S(=O)(=O)NC6CC6)c5)n4n3)cc2)CC1 [Example 930, 2-(4-{4-[7-(3-Cyclopropylsulfamoyl-phenyl)-pyrrolo[2,1-f][1,2,4]triazin-2-ylamino]-phenyl}-piperidin-1-yl)-acetamide] |
| > 7.00 | > 7.00 |  |  | CS(=O)(=O)Nc1cccc(-c2ccc3cnc(Nc4ccc(C5CCN(CCO)CC5)cc4)nn23)c1 [Example 958, N-[3-(2-{4-[1-(2-Hydroxy-ethyl)-piperidin-4-yl]-phenylamino}-pyrrolo[2,1-f][1,2,4]triazin-7-yl)-phenyl]-methanesulfonamide] |
| < 5.00 | > 7.00 |  |  | CN1CCN(C)C(c2cccc(Nc3ncc4ccc(-c5ccc(S(C)(=O)=O)cc5)n4n3)c2)C1=O (centres unmarked) [Example 1084, 3-{3-[7-(4-Methanesulfonyl-phenyl)-pyrrolo[2,1-f][1,2,4]triazin-2-ylamino]-phenyl}-1,4-dimethyl-piperazin-2-one] |
| > 7.00 | 5.00 to 6.00 |  |  | COc1cc(CN2CCN(C(=O)CN)CC2)ccc1Nc1ncc2ccc(-c3ccccc3N(C)S(C)(=O)=O)n2n1 [Example 1241, N-[2-(2-{4-[4-(2-Amino-acetyl)-piperazin-1-ylmethyl]-2-methoxy-phenylamino}-pyrrolo[2,1-f][1,2,4]triazin-7-yl)-phenyl]-N-methyl-methanesulfonamide] |
| 5.00 to 6.00 | > 7.00 |  |  | Cc1nc2cc(Nc3ncc4ccc(-c5cccc(S(C)(=O)=O)c5)n4n3)ccc2o1 [Example 599, [7-(3-Methanesulfonyl-phenyl)-pyrrolo[2,1-f][1,2,4]triazin-2-yl]-(2-methyl-benzoxazol-5-yl)-amine] |
|  |  | < 5.00 | 6.00 to 7.00 | COc1ccccc1-c1ccn2nc(Nc3ccc(N4CCN(C)CC4)cc3)ncc12 [Example 42, [5-(2-Methoxy-phenyl)-pyrrolo[2,1-f][1,2,4]triazin-2-yl]-[4-(4-methyl-piperazin-1-yl)-phenyl]-amine] |
| > 7.00 | 6.00 to 7.00 |  |  | COc1cc(C2CCN(C(=O)C(C)(C)N)CC2)ccc1Nc1ncc2ccc(-c3ccccc3N(C)S(C)(=O)=O)n2n1 [Example 822, N-[2-(2-{4-[1-(2-Amino-2-methyl-propionyl)-piperidin-4-yl]-2-methoxy-phenylamino}-pyrrolo[2,1-f][1,2,4]triazin-7-yl)-phenyl]-N-methyl-methanesulfonamide] |
|  |  | 5.00 to 6.00 | > 7.00 | CS(=O)(=O)c1ccc(-c2ccc3cnc(Nc4cccc(N5CCOCC5)c4)nn23)cc1 [Example 163, [7-(4-Methanesulfonyl-phenyl)-pyrrolo[2,1-f][1,2,4]triazin-2-yl]-(3-morpholin-4-yl-phenyl)-amine] |
|  |  | 5.00 to 6.00 | 5.00 to 6.00 | Clc1cccc(-c2ccc3cnc(-n4cnc5cnccc54)nn23)c1 [Example 324, 1-[7-(3-Chloro-phenyl)-pyrrolo[2,1-f][1,2,4]triazin-2-yl]-1H-imidazo[4,5-c]pyridine] |
| 6.00 to 7.00 | > 7.00 |  |  | CN(c1ccccc1-c1ccc2cnc(Nc3ccc4nc(C(C)(C)C)[nH]c4c3)nn12)S(C)(=O)=O [Example 1341, N-{2-[2-(2-tert-Butyl-3H-benzimidazol-5-ylamino)-pyrrolo[2,1-f][1,2,4]triazin-7-yl]-phenyl}-N-methyl-methanesulfonamide] |
| 5.00 to 6.00 | > 7.00 |  |  | COc1ccccc1-c1ccc2cnc(Nc3ccc4c(c3)N(C(C)=O)CCCC4)nn12 [Example 639, 1-{8-[7-(2-Methoxyphenyl)-pyrrolo[2,1-f][1,2,4]triazin-2-ylamino]-2,3,4,5-tetrahydrobenzo[b]azepin-1-yl}ethanone] |
| 6.00 to 7.00 | > 7.00 |  |  | COc1ccc(-c2ccc3cnc(Nc4ccc(N5CCC(CO)CC5)cc4)nn23)cn1 [Example 1102, (1-{4-[7-(6-Methoxy-pyridin-3-yl)-pyrrolo[2,1-f][1,2,4]triazin-2-ylamino]-phenyl}-piperidin-4-yl)-methanol] |
| > 7.00 | 5.00 to 6.00 |  |  | COc1cc([C@@H]2CCNC[C@@H]2O)ccc1Nc1ncc2ccc(-c3ccccc3N(C)S(C)(=O)=O)n2n1 (racemic) [Example 841, (±)-N-(2-{2-[4-((3R,4S)-3-Hydroxy-piperidin-4-yl)-2-methoxy-phenylamino]-pyrrolo[2,1-f][1,2,4]triazin-7-yl}-phenyl)-N-methyl-methanesulfonamide] |
| > 7.00 | > 7.00 |  |  | Cc1cc(Nc2ncc3ccc(-c4cccc(S(=O)(=O)NC(C)(C)C)c4)n3n2)ccc1C1CCN(CC(N)=O)CC1 [Example 938, 2-(4-{4-[7-(3-tert-Butylsulfamoyl-phenyl)-pyrrolo[2,1-f][1,2,4]triazin-2-ylamino]-2-methyl-phenyl}-piperidin-1-yl)-acetamide] |
| 5.00 to 6.00 | > 7.00 |  |  | CC(C)(C)NS(=O)(=O)c1cccc(-c2ccc3cnc(Nc4ccc5cn[nH]c5c4)nn23)c1 [Example 1327, N-tert-Butyl-3-[2-(1H-indazol-6-ylamino)-pyrrolo[2,1-f][1,2,4]triazin-7-yl]-benzenesulfonamide] |
| 5.00 to 6.00 | 5.00 to 6.00 |  |  | COc1cc(N2CCC(N3CCOCC3)CC2)ccc1Nc1ncc2ccc(-c3ccccc3S(C)(=O)=O)n2n1 [Example 540, [7-(2-Methanesulfonyl-phenyl)-pyrrolo[2,1-f][1,2,4]triazin-2-yl]-[2-methoxy-4-(4-morpholin-4-yl-piperidin-1-yl)-phenyl]-amine] |
|  |  | 6.00 to 7.00 | > 7.00 | c1cncc(-c2ccc3cnc(Nc4ccc(OCCN5CCOCC5)cc4)nn23)c1 [Example 125, [4-(2-Morpholin-4-yl-ethoxy)-phenyl]-(7-pyridin-3-yl-pyrrolo[2,1-f][1,2,4]triazin-2-yl)-amine] |
|  |  | 6.00 to 7.00 | 6.00 to 7.00 | COCCN(c1ccccc1-c1ccc2cnc(Nc3ccc(N4CCC(N5CCOCC5)CC4)cc3OC)nn12)S(C)(=O)=O [Example 1462, N-(2-Methoxy-ethyl)-N-(2-{2-[2-methoxy-4-(4-morpholin-4-yl-piperidin-1-yl)-phenylamino]-pyrrolo[2,1-f][1,2,4]triazin-7-yl}-phenyl)-methanesulfonamide] |
| 6.00 to 7.00 | > 7.00 |  |  | CC(C)(C)NS(=O)(=O)c1cccc(-c2ccc3cnc(Nc4ccc(C5CCN(CCO)CC5)cc4)nn23)c1 [Example 670, N-tert-Butyl-3-(2-{4-[1-(2-hydroxy-ethyl)-piperidin-4-yl]-phenylamino}-pyrrolo[2,1-f][1,2,4]triazin-7-yl)-benzenesulfonamide] |
| > 7.00 | 5.00 to 6.00 |  |  | COc1cc(C2CCN(C(=O)C3CCN3)CC2)ccc1Nc1ncc2ccc(-c3ccccc3N(C)S(C)(=O)=O)n2n1 (racemic) [Example 863, (±)-N-[2-(2-{4-[1-(Azetidine-2-carbonyl)-piperidin-4-yl]-2-methoxy-phenylamino}-pyrrolo[2,1-f][1,2,4]triazin-7-yl)-phenyl]-N-methyl-methanesulfonamide] |
|  |  | 6.00 to 7.00 | > 7.00 | COc1cc(Nc2ncc3ccc(-c4cccc(Cl)c4)n3n2)ccc1N1CCOCC1 [Example 65, [7-(3-Chloro-phenyl)-pyrrolo[2,1-f][1,2,4]triazin-2-yl]-(3-methoxy-4-morpholin-4-yl-phenyl)-amine] |
| > 7.00 | 6.00 to 7.00 |  |  | COc1cc(CN2CCN(CC(O)CF)CC2)ccc1Nc1ncc2ccc(-c3ccccc3OC)n2n1 (centres unmarked) [Example 1243, 1-Fluoro-3-(4-{3-methoxy-4-[7-(2-methoxy-phenyl)-pyrrolo[2,1-f][1,2,4]triazin-2-ylamino]-benzyl}-piperazin-1-yl)-propan-2-ol] |
| < 5.00 | > 7.00 |  |  | CN1CCN(C)C(c2cccc(Nc3ncc4ccc(-c5cccc(S(=O)(=O)N6CCOCC6)c5)n4n3)c2)C1=O (centres unmarked) [Example 1078, 1,4-Dimethyl-3-(3-{7-[3-(morpholine-4-sulfonyl)-phenyl]-pyrrolo[2,1-f][1,2,4]triazin-2-ylamino}-phenyl)-piperazin-2-one] |
|  |  | 6.00 to 7.00 | > 7.00 | COc1ccc(Cl)cc1-c1ccc2cnc(Nc3ccc(C(C)(C)C)c(NC(C)=O)c3)nn12 [Example 306, N-{2-tert-Butyl-5-[7-(5-chloro-2-methoxy-phenyl)-pyrrolo[2,1-f][1,2,4]triazin-2-ylamino]-phenyl}-acetamide] |
|  |  | 6.00 to 7.00 | 6.00 to 7.00 | COc1cc(N2CCN(C)CC2)ccc1Nc1ncc2ccc(-c3cc(S(=O)(=O)N(C)C)ccc3C)n2n1 [Example 75, 3-{2-[2-Methoxy-4-(4-methyl-piperazin-1-yl)-phenylamino]-pyrrolo[2,1-f][1,2,4]triazin-7-yl}-4,N,N-trimethyl-benzenesulfonamide] |
| 6.00 to 7.00 | > 7.00 |  |  | COc1ccc(-c2ccc3cnc(Nc4ccc(C5CCN(CCO)CC5)cc4)nn23)cn1 [Example 671, 2-(4-{4-[7-(6-Methoxy-pyridin-3-yl)-pyrrolo[2,1-f][1,2,4]triazin-2-ylamino]-phenyl}-piperidin-1-yl)-ethanol] |
|  |  | 6.00 to 7.00 | > 7.00 | c1ccc(Sc2ccc3cnc(Nc4ccc(N5CCOCC5)cc4)nn23)cc1 [Example 97, (4-Morpholin-4-yl-phenyl)-(7-phenylsulfanyl-pyrrolo[2,1-f][1,2,4]triazin-2-yl)-amine] |
| > 7.00 | > 7.00 |  |  | NC(=O)CN1CCC(c2ccc(Nc3ncc4ccc(-c5cccc6c5OCC6)n4n3)cc2)CC1 [Example 706, 2-(4-{4-[7-(2,3-Dihydro-benzofuran-7-yl)-pyrrolo[2,1-f][1,2,4]triazin-2-ylamino]-phenyl}-piperidin-1-yl)-acetamide] |
